Laboratory results reported in patent publication US12263200B2, “Specific nutritional or therapeutic agent including a mixture of grape and blueberry” (priority 2015, dated 2025).

Test system: SK-N-SH cells
Assay: Test 3: protection of neuronal cells against hydrogen peroxide (LDH cell death test, Resazurin cell survival test)
Assay type: cell-based, human
Settings: for protection of cells against hydrogen peroxide, cumulative treatment, polyphenols taken individually (cell survival, Resazurin test): 1 μM, 1 nM and 1 pM for 3 consecutive days, then hydrogen peroxide 250 μM, analyzed 24 hours later; for protection of cells against hydrogen peroxide, acute treatment (cell death LDH release, survival Resazurin test): toxic hydrogen peroxide (250 μM), co-treated 24 hours at 1 μM, 1 nM and 1 pM
Method: For this, SK-N-SH cells, a cell line of human neuroblasts, were kept in a MEM supplemented with 10% (v/v) FBS, 100 U/ml of penicillin, 100 μg/ml of streptomycin and 1% sodium pyruvate (1 mM) in a humidified incubator at 37° C. with 5% CO2. The cells were grown to 80% confluence then seeded in multi-well cell culture plates to create different experimental models. The neuroprotective effect of the different compounds was analyzed by two different and complementary tests: the cell death quantification test and the cell survival test.
The cell death test is a colorimetric test based on measuring the activity of the lactate dehydrogenase (LDH) released by the cytosol from damaged cells in the supernatant.
The cell survival test was performed by conducting a Resazurin Test. Resazurin is an oxidation-reduction indicator of the permeable cell that can be used to monitor the number of viable cells by using tetrazolium compounds. The viable cells with an active metabolism can reduce resazurin into a resorufin product that is pink and fluorescent.
SK-N-SH neuronal cells were subjected to a toxic concentration of hydrogen peroxide (250 μM) and co-treated with epicatechin, catechin or ferulic acid at 1 μM, 1 nM and 1 pM for 24 hours. On completing the treatment, the cells were washed twice and cell death (release of LDH) and survival (Resazurin test) were analyzed.
In order to study the synergistic effect of epicatchin, catechin and ferulic acid, the SK-N-SH neuronal cells were subjected for 24 hours to a toxic concentration of hydrogen peroxide and co-treated with a mix comprising epicatechin, catechin and ferulic acid, said mix being tested at the different concentrations of 1 μM, 1 nM or 1 pM. On completing the treatment, the cells were washed twice and the cell death (release of LDH) and survival (Resazurin test) were analyzed.
The neuroprotective effects of the three polyphenols, i.e. epicatechin, catechin and ferulic acid, with a cumulative treatment, were then studied. The SK-N-SH cells were grown to 80% confluence then seeded in multi-well cell culture plates. […] On the third day, the cells were subjected to a toxic concentration of hydrogen peroxide (250 μM) and the protection was analyzed 24 hours later. On completing the treatment, the cells were washed twice and cell survival (Resazurin test) was analyzed.
In order to study the synergistic effect of epicatechin, catechin and ferulic acid, the SK-N-SH cells were grown to 80% confluence then seeded in multi-well cell culture plates. […] On the third day, the cells were subjected to a toxic concentration of hydrogen peroxide (125 μM and 250 μM) and the protection was analyzed 24 hours later. On completing the treatment, the cells were washed twice and cell survival (Resazurin test) was analyzed. […]

Compound	protection of cells against hydrogen peroxide, cumulative treatment, polyphenols taken individually (cell survival, Resazurin test)	protection of cells against hydrogen peroxide, acute treatment (cell death LDH release, survival Resazurin test)
COc1cc(/C=C/C(=O)O)ccc1O [ferulic acid]	do not protect the cells against hydrogen peroxide	do not protect the cells against hydrogen peroxide
catechin	do not protect the cells against hydrogen peroxide	do not protect the cells against hydrogen peroxide
